Experimental data: PMC6138237, “Machine intelligence decrypts β-lapachone as an allosteric 5-lipoxygenase inhibitor” (Chemical Science, 2018)
Values joined by “and” are separate entries in the source; they are usually repeats but may differ in a detail not shown here. Identical values can stand only once. Like-named read-outs stand apart in the source and are kept apart here.

What was measured:
[1] = Dynamic light scattering (colloidal aggregation); type: physicochemical; details: for Count rate (kcps): 25 °C
[2] = biological target: TRPV1 (Homo sapiens, UniProt Q8NER1); assay: TRPV1 functional antagonist assay, Cerep (capsaicin 30 nM); type: cell-based
[3] = biological target: T1, 5-LO (Homo sapiens, UniProt P09917); assay: 5-LO product formation in neutrophil homogenates
T1 sequence (P09917 1-674): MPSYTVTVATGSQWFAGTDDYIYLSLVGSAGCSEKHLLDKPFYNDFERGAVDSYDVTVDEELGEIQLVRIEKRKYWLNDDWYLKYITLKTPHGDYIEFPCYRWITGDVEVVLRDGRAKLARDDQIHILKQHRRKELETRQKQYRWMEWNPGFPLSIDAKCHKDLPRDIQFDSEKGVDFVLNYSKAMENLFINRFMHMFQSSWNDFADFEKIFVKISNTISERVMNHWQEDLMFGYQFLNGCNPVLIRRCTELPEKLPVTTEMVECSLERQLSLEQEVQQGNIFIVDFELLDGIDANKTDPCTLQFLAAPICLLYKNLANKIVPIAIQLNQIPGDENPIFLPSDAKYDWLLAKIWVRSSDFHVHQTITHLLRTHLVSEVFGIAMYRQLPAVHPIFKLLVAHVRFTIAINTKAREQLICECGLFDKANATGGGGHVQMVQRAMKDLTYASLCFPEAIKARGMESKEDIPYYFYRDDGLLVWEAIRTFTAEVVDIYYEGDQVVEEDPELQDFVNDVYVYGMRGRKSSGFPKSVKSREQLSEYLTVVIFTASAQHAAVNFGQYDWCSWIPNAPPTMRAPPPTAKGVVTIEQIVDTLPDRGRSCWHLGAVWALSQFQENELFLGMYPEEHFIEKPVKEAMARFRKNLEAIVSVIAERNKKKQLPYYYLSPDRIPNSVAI

[4] = biological target: ROCK1 (Homo sapiens, UniProt Q13464); assay: ExpresS Diversity Kinase Profile, Cerep (LANCE): ROCK1; type: biochemical
[5] = biological target: T2, EP3 (Homo sapiens, UniProt P43115); assay: EP3 functional agonist assay, Cerep (impedance)
T2 sequence (P43115 1-390): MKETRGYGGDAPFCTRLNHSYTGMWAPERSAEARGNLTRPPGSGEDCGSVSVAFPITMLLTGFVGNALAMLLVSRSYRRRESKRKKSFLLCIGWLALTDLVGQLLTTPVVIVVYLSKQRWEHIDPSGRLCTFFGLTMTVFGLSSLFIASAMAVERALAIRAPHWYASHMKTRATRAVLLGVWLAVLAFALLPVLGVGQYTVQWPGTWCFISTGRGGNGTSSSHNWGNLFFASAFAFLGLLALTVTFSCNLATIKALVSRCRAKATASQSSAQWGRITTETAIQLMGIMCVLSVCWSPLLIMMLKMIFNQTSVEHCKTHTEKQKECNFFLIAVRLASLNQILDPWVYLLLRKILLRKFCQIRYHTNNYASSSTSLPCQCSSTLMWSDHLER

[6] = tested on: Escherichia coli K12; assay: Minimum inhibitory concentration assay, Escherichia coli; details: concentrations up to 50 µM
[7] = biological target: Lck (Homo sapiens, UniProt P06239); assay: ExpresS Diversity Kinase Profile, Cerep (LANCE): Lck; type: biochemical
[8] = biological target: T3, TRPM8 (Homo sapiens, UniProt Q7Z2W7); assay: TRPM8 functional agonist assay, Cerep (intracellular Ca2+); type: cell-based; details: TRPM8 (agonist), 150 µM
T3 construct: Cerep, SA (fee-for-service assay) printed G018533 (citation number 33 glued on)

[9] = biological target: PAK4 (Homo sapiens, UniProt O96013); assay: ExpresS Diversity Kinase Profile, Cerep (LANCE): PAK4; type: biochemical
[10] = biological target: T4, IKKα (Homo sapiens, UniProt O15111); assay: ExpresS Diversity Kinase Profile, Cerep (LANCE): IKKα; type: biochemical
T4 sequence (O15111 1-745): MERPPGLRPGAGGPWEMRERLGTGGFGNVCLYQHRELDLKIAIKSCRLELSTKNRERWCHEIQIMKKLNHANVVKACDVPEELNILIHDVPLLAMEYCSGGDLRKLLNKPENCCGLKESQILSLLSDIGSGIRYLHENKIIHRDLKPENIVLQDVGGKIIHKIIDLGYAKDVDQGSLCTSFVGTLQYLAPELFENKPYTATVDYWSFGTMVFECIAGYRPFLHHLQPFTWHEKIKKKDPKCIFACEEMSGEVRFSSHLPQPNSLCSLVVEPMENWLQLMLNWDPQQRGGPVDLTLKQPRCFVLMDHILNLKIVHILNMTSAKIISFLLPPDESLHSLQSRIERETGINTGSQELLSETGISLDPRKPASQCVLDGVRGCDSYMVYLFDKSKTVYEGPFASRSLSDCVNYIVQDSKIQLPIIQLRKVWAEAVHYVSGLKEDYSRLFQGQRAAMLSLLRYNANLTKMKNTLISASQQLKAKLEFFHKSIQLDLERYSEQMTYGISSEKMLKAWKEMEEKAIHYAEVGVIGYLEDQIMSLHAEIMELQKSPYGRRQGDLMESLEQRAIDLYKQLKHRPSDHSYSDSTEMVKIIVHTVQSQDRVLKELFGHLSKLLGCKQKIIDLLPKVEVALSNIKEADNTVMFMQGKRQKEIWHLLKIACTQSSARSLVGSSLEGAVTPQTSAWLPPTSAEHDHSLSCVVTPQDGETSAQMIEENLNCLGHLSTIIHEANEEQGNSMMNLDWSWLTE

[11] = biological target: EP4 (Homo sapiens, UniProt P35408); assay: EP4 functional agonist assay, Cerep (cAMP, HTRF)
[12] = Flag: Interference, read-out: % Inhibition of control values, 1st measurement
[13] = Flag: Interference, read-out: % Inhibition of control values, 2nd measurement
[14] = n = 2, Flag: Interference, read-out: % Inhibition of control values, Mean
[15] = read-out: % of control values, 1st measurement
[16] = read-out: % of control values, 2nd measurement
[17] = read-out: % of control values, Mean

PAK4, sequence (O96013 whole entry): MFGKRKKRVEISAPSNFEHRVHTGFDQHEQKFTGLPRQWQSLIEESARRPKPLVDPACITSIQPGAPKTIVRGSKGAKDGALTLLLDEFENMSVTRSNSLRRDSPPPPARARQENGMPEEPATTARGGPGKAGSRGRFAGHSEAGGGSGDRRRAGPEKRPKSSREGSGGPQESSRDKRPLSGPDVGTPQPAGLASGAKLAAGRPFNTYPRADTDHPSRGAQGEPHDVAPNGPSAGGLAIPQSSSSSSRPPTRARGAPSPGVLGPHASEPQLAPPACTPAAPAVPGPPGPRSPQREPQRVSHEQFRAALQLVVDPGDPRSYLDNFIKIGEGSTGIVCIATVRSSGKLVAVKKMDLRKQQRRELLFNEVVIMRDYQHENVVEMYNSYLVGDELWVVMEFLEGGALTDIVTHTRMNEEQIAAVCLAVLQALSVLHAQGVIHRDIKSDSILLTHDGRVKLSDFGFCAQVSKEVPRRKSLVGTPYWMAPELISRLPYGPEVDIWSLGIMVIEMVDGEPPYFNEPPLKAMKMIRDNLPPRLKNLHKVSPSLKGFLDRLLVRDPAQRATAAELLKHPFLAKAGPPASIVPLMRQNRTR
T3 sequence (Q7Z2W7 whole entry): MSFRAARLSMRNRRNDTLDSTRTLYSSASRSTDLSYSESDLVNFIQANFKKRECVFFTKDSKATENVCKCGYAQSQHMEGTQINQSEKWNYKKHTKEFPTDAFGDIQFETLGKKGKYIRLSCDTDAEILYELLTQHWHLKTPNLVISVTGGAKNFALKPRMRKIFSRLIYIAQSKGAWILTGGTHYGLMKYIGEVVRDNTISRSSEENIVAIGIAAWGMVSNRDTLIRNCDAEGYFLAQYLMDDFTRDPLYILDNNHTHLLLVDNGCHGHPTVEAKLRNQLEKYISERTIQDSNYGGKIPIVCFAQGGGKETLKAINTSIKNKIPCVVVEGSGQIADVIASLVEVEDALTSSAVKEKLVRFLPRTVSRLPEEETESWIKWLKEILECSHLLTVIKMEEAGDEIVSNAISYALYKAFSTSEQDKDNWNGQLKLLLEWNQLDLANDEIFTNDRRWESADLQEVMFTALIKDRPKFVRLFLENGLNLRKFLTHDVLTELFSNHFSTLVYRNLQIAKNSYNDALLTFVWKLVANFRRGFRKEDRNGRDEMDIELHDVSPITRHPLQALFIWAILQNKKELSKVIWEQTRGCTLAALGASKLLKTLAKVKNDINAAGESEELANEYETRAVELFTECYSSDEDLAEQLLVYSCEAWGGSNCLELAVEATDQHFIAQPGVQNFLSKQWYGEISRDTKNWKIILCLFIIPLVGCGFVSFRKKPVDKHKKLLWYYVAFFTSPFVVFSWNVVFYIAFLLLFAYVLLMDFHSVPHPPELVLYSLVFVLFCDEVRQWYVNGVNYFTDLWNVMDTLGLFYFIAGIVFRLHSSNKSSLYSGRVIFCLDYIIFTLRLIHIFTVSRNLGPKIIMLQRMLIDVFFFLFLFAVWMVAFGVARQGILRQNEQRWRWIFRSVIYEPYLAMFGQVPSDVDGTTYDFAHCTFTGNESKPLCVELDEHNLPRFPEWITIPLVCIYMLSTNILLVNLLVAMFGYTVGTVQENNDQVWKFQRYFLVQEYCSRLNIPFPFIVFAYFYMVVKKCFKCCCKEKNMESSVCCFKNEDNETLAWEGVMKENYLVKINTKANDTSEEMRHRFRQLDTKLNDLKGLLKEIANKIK
ROCK1, sequence (Q13464 whole entry): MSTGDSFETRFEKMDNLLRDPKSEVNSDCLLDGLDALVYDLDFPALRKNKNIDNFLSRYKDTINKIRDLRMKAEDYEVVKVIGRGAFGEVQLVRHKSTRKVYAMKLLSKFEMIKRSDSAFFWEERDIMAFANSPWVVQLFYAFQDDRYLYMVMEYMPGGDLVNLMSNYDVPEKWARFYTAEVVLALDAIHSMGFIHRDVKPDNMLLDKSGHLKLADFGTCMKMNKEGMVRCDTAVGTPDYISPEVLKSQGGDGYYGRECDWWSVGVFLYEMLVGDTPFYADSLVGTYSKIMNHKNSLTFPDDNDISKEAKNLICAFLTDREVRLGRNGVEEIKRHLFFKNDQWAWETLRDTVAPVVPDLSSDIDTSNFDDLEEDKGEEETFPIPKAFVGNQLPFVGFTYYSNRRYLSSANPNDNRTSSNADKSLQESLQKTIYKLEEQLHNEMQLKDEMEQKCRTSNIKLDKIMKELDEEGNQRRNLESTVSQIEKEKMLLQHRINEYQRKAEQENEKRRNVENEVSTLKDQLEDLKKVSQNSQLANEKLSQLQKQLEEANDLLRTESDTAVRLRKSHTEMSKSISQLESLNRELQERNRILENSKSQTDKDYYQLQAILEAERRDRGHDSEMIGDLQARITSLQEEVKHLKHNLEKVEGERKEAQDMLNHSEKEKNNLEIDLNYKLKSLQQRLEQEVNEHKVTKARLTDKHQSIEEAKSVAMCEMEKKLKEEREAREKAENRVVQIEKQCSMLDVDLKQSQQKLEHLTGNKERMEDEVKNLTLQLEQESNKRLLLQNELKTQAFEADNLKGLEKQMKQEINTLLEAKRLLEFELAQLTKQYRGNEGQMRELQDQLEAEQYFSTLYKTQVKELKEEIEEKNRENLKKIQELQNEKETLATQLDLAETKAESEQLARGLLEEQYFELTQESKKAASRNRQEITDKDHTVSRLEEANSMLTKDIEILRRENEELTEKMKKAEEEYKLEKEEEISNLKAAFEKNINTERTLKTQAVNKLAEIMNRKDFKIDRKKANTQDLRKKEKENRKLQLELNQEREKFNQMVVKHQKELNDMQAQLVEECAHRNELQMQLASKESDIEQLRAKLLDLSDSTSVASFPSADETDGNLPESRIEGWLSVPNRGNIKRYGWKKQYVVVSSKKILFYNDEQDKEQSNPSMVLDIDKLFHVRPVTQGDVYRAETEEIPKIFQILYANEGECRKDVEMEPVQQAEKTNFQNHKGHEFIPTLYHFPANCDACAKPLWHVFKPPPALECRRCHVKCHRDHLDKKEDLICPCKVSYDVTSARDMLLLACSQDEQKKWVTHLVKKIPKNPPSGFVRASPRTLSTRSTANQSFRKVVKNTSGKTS
EP4, sequence (P35408 whole entry): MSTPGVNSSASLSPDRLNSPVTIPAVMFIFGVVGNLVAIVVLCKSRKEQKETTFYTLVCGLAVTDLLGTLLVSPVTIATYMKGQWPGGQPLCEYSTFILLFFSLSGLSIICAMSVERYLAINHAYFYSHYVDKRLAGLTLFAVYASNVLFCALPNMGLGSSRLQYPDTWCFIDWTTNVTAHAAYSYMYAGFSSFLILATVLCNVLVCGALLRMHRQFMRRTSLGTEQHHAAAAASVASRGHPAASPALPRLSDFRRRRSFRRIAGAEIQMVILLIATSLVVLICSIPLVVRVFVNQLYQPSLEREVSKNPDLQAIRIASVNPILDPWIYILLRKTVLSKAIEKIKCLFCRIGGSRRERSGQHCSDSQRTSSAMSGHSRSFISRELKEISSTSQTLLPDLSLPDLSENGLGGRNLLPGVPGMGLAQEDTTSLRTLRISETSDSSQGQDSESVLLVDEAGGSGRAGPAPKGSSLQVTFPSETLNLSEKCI
Lck, sequence (P06239 whole entry): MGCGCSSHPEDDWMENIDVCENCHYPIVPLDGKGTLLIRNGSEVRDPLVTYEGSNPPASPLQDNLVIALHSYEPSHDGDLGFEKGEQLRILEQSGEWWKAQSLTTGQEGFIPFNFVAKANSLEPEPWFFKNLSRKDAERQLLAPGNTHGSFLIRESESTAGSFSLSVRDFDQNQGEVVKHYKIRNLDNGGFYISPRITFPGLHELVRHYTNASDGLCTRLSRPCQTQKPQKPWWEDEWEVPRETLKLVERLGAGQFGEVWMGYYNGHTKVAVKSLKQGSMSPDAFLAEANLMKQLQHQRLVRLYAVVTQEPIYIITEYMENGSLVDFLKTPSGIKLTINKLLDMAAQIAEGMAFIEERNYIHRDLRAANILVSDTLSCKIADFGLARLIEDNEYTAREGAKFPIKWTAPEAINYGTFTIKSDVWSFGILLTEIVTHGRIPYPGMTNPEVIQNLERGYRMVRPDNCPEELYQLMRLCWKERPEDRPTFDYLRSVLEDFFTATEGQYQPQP
TRPV1, sequence (Q8NER1 whole entry): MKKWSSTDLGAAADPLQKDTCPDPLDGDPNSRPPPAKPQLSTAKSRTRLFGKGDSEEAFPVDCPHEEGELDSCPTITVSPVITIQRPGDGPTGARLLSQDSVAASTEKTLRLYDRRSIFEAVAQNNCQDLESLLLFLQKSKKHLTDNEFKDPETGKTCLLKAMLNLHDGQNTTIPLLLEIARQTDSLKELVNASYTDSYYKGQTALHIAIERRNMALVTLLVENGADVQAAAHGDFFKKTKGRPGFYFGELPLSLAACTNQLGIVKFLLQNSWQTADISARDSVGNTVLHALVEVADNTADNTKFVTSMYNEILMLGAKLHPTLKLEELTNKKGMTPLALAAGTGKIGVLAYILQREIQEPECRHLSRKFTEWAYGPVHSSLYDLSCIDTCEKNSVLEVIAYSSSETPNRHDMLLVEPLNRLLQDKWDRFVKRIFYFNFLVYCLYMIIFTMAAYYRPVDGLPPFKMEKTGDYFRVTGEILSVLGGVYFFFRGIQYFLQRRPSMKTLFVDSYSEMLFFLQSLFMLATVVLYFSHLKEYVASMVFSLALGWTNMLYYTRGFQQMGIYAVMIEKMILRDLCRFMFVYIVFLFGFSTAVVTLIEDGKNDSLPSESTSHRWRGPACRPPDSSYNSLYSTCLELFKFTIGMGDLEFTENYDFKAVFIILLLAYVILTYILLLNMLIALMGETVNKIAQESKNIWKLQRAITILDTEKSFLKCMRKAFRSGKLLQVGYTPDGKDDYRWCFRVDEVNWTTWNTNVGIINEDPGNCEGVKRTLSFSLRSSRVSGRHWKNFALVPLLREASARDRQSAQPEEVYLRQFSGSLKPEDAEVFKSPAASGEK

CC1(C)CCC2=C(O1)c1ccccc1C(=O)C2=O [β-Lapachone]
Count rate (kcps) ([1]; 25 µM in H2O + 0.1% DMSO): 60.7 kcps
Count rate (kcps) ([1]; 50 µM in H2O + 0.1% DMSO): 47.6 kcps
Count rate (kcps) ([1]; 100 µM in H2O + 0.1% DMSO): 136.1 kcps
aggregation by dynamic light scattering ([1]; at relevant concentrations): no aggregation
IC50 [2]: ~100000 nM
IC50 ([3]; IC50 (with DTT), neutrophil homogenates with 1 mM DTT, n = 3): 90 nM and 85 nM
IC50 ([3]; IC50 (without DTT), neutrophil homogenates without DTT, n = 3): 5200 nM
IC50 ([3]; IC50, neutrophil homogenates with 1 mM dithiothreitol): 85.5 nM
inhibition at 150 µM [4, 12]: -12.5%
inhibition at 150 µM [4, 13]: -3.2%
inhibition at 150 µM [4, 14]: -7.9%
remaining activity at 150 µM [5, 15]: 18.6%
remaining activity at 150 µM [5, 16]: 15.5%
remaining activity at 150 µM [5, 17]: 17%
phenotypic effects on Escherichia coli [6]: No phenotypic effects
inhibition at 150 µM [7, 12]: -32.6%
inhibition at 150 µM [7, 13]: -37.7%
inhibition at 150 µM [7, 14]: -35.2%
remaining activity at 150 µM ([8]; n = 2, read-out: % of control values, Mean): -20.4%
remaining activity at 150 µM [8, 15]: -20.4%
remaining activity at 150 µM [8, 16]: -20.4%
inhibition at 150 µM ([9]; n = 2, read-out: % Inhibition of control values, Mean): -1.9%
inhibition at 150 µM ([9]; read-out: % Inhibition of control values, 1st measurement): -3.7%
inhibition at 150 µM ([9]; read-out: % Inhibition of control values, 2nd measurement): 0%
inhibition at 150 µM [10, 12]: 59.5%
inhibition at 150 µM [10, 13]: 59.4%
inhibition at 150 µM [10, 14]: 59.5%
IC50 [11]: ~100000 nM
remaining activity at 150 µM [11, 15]: 54.6%
remaining activity at 150 µM [11, 16]: 51.7%
remaining activity at 150 µM [11, 17]: 53.1%
